Our source for the AC50 values is US20230365592A1 (Agios Pharmaceuticals, Inc., priority 2022, published 2023).

Some results are limits rather than exact numbers.

In the first experiment the target is T1, human PAH with the R408W mutation (Homo sapiens, UniProt P00439, R408W).
T1 construct: expressed in transfected cells
T1 sequence (P00439 1-452 R408W): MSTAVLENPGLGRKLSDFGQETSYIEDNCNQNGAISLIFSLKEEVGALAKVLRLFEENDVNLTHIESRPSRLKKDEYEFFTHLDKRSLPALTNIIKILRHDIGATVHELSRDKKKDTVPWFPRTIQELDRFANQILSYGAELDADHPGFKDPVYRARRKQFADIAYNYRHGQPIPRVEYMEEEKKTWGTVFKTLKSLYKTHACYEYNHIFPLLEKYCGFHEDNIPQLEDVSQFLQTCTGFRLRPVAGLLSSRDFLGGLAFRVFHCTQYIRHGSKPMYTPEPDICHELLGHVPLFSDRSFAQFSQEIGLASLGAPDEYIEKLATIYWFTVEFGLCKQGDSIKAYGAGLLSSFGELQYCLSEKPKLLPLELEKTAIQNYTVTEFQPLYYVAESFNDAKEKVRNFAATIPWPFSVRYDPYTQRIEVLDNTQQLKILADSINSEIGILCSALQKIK
The experiment is described as follows: Cell Based Phenylalanine Flux Assay.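 Further: after compound treatment, cells received sepiapterin plus isotope-labelled Phenylalanine for 4 hours, then labelled Tyrosine in the medium was quantified, 10-point 2-fold dilution series run in duplicate.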 As to conditions: A375 cells expressing R408W PAH; 24 hrs with compound, then 20 µM sepiapterin and 800 µM 13C9,15N-Phenylalanine for 4 hours; 13C-Tyrosine by LC-MS; average where tested multiple times; read-out: AC50.
By AC50 is commonly meant the concentration at which the activity in the assay is half-maximal. For `O=C(c1nnc(NC2CC2)o1)N1CCc2[nH]cnc2C1c1cc2ccccn2n1` (centres unmarked), the AC50 is 1000 to 5000 nM.

In the case of `COCc1ccc2c(C(=O)N3CCc4[nH]cnc4C3c3cc4cccc(Cl)n4n3)cnn2c1` (centres unmarked), the AC50 lay in the range of 1000 to 5000 nM.

Regarding `O=C(Cc1nncs1)N1CCc2nc[nH]c2C1c1cc2ccccn2n1` (centres unmarked), the concentration at half-maximal activity (AC50) is 1000 to 5000 nM.

With `Cn1ccc(C(=O)N2CCc3[nH]cnc3C2c2cc3ccccn3n2)n1` (centres unmarked), the AC50 was above 5000 nM.

For the compound `O=C(c1cnn2cc(N3CCOCC3)ccc12)N1CCc2[nH]cnc2C1c1cc2cccc(C(F)(F)F)n2n1` (centres unmarked), the AC50 was in the range of 1000 to 5000 nM.

As for `Cc1nc(C(C)(C)O)oc1C(=O)N1CCc2[nH]cnc2C1c1cc2cccc(C)n2n1` (centres unmarked), the AC50 lay within 1000 to 5000 nM.

As for `FC(F)c1cccc2cc(C3c4nc[nH]c4CCN3c3nnc(C4CC4)o3)nn12` (centres unmarked), the AC50 lay in the range of 1000 to 5000 nM.

As to `O=C(c1cnco1)N1CCc2[nH]cnc2C1c1cc2cccc(C(F)(F)F)n2n1` (centres unmarked), the AC50 was 1000 to 5000 nM.

As for `Cn1nc(C(F)F)nc1C(=O)N1CCc2[nH]cnc2C1c1cc2cc(F)ccn2n1` (centres unmarked), the AC50 is 1000 to 5000 nM.

Still in this experiment, the particulars now being: A375 cells expressing human PAH R408W; 24 hrs compound incubation; 13C-Tyrosine by LC-MS; average where tested multiple times; read-out: AC50.
`Cc1c(-c2ncc(C(=O)N3CCc4[nH]cnc4[C@H]3c3cc4c(C(F)F)cccn4n3)o2)cnn1C` [Example 2068, (S)-(4-(4-(difluoromethyl)pyrazolo[1,5-a]pyridin-2-yl)-1,4,6,7-tetrahydro-5H-imidazo[4,5-c]pyridin-5-yl)(2-(1,5-dimethyl-1H-pyrazol-4-yl)oxazol-5-yl)methanone]: the AC50 was 500 to 1000 nM.

In the case of `Cc1cccn2nc([C@@H]3c4nc[nH]c4CCN3C(=O)c3nc4ccccc4s3)cc12` [Example 2502, (S)-benzo[d]thiazol-2-yl(4-(4-methylpyrazolo[1,5-a]pyridin-2-yl)-1,4,6,7-tetrahydro-5H-imidazo[4,5-c]pyridin-5-yl)methanone], the AC50 fell in the range of 1000 to 5000 nM.

In the case of `Fc1ccc(-c2nnc(N3CCc4[nH]cnc4[C@H]3c3cc4c(C(F)(F)F)cccn4n3)o2)cc1` [Example 1893, (S)-2-(4-fluorophenyl)-5-(4-(4-(trifluoromethyl)pyrazolo[1,5-a]pyridin-2-yl)-1,4,6,7-tetrahydro-5H-imidazo[4,5-c]pyridin-5-yl)-1,3,4-oxadiazole], the AC50 was below 500 nM.

Consider `Cc1cccc(-c2nnc(N3CCc4[nH]cnc4[C@@H]3c3cc4c(C5CC5)cccn4n3)o2)n1` [Example 2358, (R)-2-(4-(4-cyclopropylpyrazolo[1,5-a]pyridin-2-yl)-1,4,6,7-tetrahydro-5H-imidazo[4,5-c]pyridin-5-yl)-5-(6-methylpyridin-2-yl)-1,3,4-oxadiazole], for which the AC50 is above 5000 nM.

For `Cc1cccn2nc([C@@H]3c4nc[nH]c4CCN3c3nnc(C(C)(C)C)o3)cc12` [Example 1799, (S)-2-(tert-butyl)-5-(4-(4-methylpyrazolo[1,5-a]pyridin-2-yl)-6,7-dihydro-1H-imidazo[4,5-c]pyridin-5(4H)-yl)-1,3,4-oxadiazole], the AC50 was in the range of 500 to 1000 nM.

Turning to `O=C([C@@H]1CC1(F)F)N1CCc2[nH]cnc2[C@@H]1c1cc2c(F)cccn2n1` [Example 2031, ((S)-2,2-difluorocyclopropyl)((R)-4-(4-fluoropyrazolo[1,5-a]pyridin-2-yl)-1,4,6,7-tetrahydro-5H-imidazo[4,5-c]pyridin-5-yl)methanone], the AC50 was 1000 to 5000 nM.

On to `FC(F)(F)c1nnc(N2CCc3[nH]cnc3[C@H]2c2cc3ccccn3n2)o1` [Example 1807, (S)-2-(4-(pyrazolo[1,5-a]pyridin-2-yl)-6,7-dihydro-1H-imidazo[4,5-c]pyridin-5(4H)-yl)-5-(trifluoromethyl)-1,3,4-oxadiazole], for which the AC50 is 500 to 1000 nM.

`Fc1cccn2nc([C@H]3c4nc[nH]c4CCN3c3nnc(-c4ccncn4)o3)cc12` [Example 2179, (R)-2-(4-(4-fluoropyrazolo[1,5-a]pyridin-2-yl)-1,4,6,7-tetrahydro-5H-imidazo[4,5-c]pyridin-5-yl)-5-(pyrimidin-4-yl)-1,3,4-oxadiazole]: the AC50 was above 5000 nM.

For `Cc1cccnc1-c1nnc(N2CCc3[nH]cnc3[C@@H]2c2cc3c(C(C)C)cccn3n2)o1` [Example 2284, (R)-2-(4-(4-isopropylpyrazolo[1,5-a]pyridin-2-yl)-1,4,6,7-tetrahydro-5H-imidazo[4,5-c]pyridin-5-yl)-5-(3-methylpyridin-2-yl)-1,3,4-oxadiazole], the AC50 was above 5000 nM.

In the case of `Clc1cccn2nc([C@@H]3c4nc[nH]c4CCN3c3nnc(C4CCC4)o3)cc12` [Example 1831, (S)-2-(4-(4-chloropyrazolo[1,5-a]pyridin-2-yl)-6,7-dihydro-1H-imidazo[4,5-c]pyridin-5(4H)-yl)-5-cyclobutyl-1,3,4-oxadiazole], the AC50 was in the range of 500 to 1000 nM.

As to `FC(F)(F)c1ccc(N2CCc3[nH]cnc3[C@H]2c2cc3c(C4CC4)cccn3n2)nc1` [Example 2170, (S)-4-(4-cyclopropylpyrazolo[1,5-a]pyridin-2-yl)-5-(5-(trifluoromethyl)pyridin-2-yl)-4,5,6,7-tetrahydro-1H-imidazo[4,5-c]pyridine], the concentration at half-maximal activity (AC50) was below 500 nM.

Still in this experiment, the particulars now being: A375 cells expressing human R408W PAH; 24 hrs compound incubation; 13C-Tyrosine by LC-MS; average where tested multiple times; read-out: AC50.
For the compound `Clc1cccn2nc([C@H]3c4nc[nH]c4CCN3c3nnc(C4CC4)o3)cc12` [Example 1454, (R)-2-(4-(4-chloropyrazolo[1,5-a]pyridin-2-yl)-1,4,6,7-tetrahydro-5H-imidazo[4,5-c]pyridin-5-yl)-5-cyclopropyl-1,3,4-oxadiazole], the AC50 is above 5000 nM.

As for `Cn1cc(-c2nnc(C(=O)N3CCc4[nH]cnc4[C@H]3c3cc4c(F)cccn4n3)o2)cn1` [Example 728, (S)-(4-(4-fluoropyrazolo[1,5-a]pyridin-2-yl)-6,7-dihydro-1H-imidazo[4,5-c]pyridin-5(4H)-yl)(5-(1-methyl-1H-pyrazol-4-yl)-1,3,4-oxadiazol-2-yl)methanone], the AC50 was below 500 nM.

`O=C(c1nnc(C2CC2)o1)N1CCc2[nH]cnc2[C@H]1c1cc2c(Cl)cccn2n1` [Example 1094, (S)-(4-(4-chloropyrazolo[1,5-a]pyridin-2-yl)-6,7-dihydro-1H-imidazo[4,5-c]pyridin-5(4H)-yl)(5-cyclopropyl-1,3,4-oxadiazol-2-yl)methanone]: the AC50 was below 500 nM.

On to `Cc1cccc2cc([C@H]3c4nc[nH]c4CCN3C(=O)c3cnn4cc(CN(C)C)ccc34)nn12` [Example 1691, (R)-(6-((dimethylamino)methyl)pyrazolo[1,5-a]pyridin-3-yl)(4-(7-methylpyrazolo[1,5-a]pyridin-2-yl)-6,7-dihydro-1H-imidazo[4,5-c]pyridin-5(4H)-yl)methanone], for which the AC50 is above 5000 nM.

In the case of `C[C@H](O)c1nc(C(F)F)c(C(=O)N2CCc3[nH]cnc3[C@@H]2c2cc3cccc(Cl)n3n2)o1` [Example 1194, ((R)-4-(7-chloropyrazolo[1,5-a]pyridin-2-yl)-6,7-dihydro-1H-imidazo[4,5-c]pyridin-5(4H)-yl)(4-(difluoromethyl)-2-((S)-1-hydroxyethyl)oxazol-5-yl)methanone], the AC50 was 1000 to 5000 nM.

Take `CC(C)c1nnc(C(=O)N2CCc3[nH]cnc3[C@H]2c2cc3cccc(F)n3n2)o1` [Example 1555, (S)-(4-(7-fluoropyrazolo[1,5-a]pyridin-2-yl)-6,7-dihydro-1H-imidazo[4,5-c]pyridin-5(4H)-yl)(5-isopropyl-1,3,4-oxadiazol-2-yl)methanone]: the AC50 is 1000 to 5000 nM.

As for `C[C@H](O)c1nc(C(F)F)c(C(=O)N2CCc3[nH]cnc3[C@@H]2c2cc3ccccn3n2)o1` [Example 693, (4-(difluoromethyl)-2-((S)-1-hydroxyethyl)oxazol-5-yl)((R)-4-(pyrazolo[1,5-a]pyridin-2-yl)-6,7-dihydro-1H-imidazo[4,5-c]pyridin-5(4H)-yl)methanone], the AC50 was above 5000 nM.

As for `O=C(c1ccnn1C(F)F)N1CCc2[nH]cnc2[C@H]1c1cc2ccccn2n1` [Example 656, (S)-(1-(difluoromethyl)-1H-pyrazol-5-yl)(4-(pyrazolo[1,5-a]pyridin-2-yl)-6,7-dihydro-1H-imidazo[4,5-c]pyridin-5(4H)-yl)methanone], the AC50 is below 500 nM.

On to `O=C(c1cnn2cc(C3CC3)ccc12)N1CCc2[nH]cnc2[C@H]1c1cc2cccc(F)n2n1` [Example 1790, (S)-(6-cyclopropylpyrazolo[1,5-a]pyridin-3-yl)(4-(7-fluoropyrazolo[1,5-a]pyridin-2-yl)-6,7-dihydro-1H-imidazo[4,5-c]pyridin-5(4H)-yl)methanone], for which the AC50 lay within 500 to 1000 nM.

Take `O=C(c1cnn2cc(C3CC3)ccc12)N1CCc2[nH]cnc2[C@H]1c1cc2c(C(F)(F)F)cccn2n1` [Example 1716, (S)-(6-cyclopropylpyrazolo[1,5-a]pyridin-3-yl)(4-(4-(trifluoromethyl)pyrazolo[1,5-a]pyridin-2-yl)-6,7-dihydro-1H-imidazo[4,5-c]pyridin-5(4H)-yl)methanone]: the concentration at half-maximal activity (AC50) is below 500 nM.

Consider `O=C(CC1CC1)N1CCc2[nH]cnc2[C@H]1c1cc2ccccn2n1` [Example 614, (S)-2-cyclopropyl-1-(4-(pyrazolo[1,5-a]pyridin-2-yl)-6,7-dihydro-1H-imidazo[4,5-c]pyridin-5(4H)-yl)ethanone], for which the AC50 is below 500 nM.

Consider `CC(C)(O)c1nc(Br)c(C(=O)N2CCc3[nH]cnc3[C@@H]2c2cc3ccccn3n2)o1` [Example 677, (R)-(4-bromo-2-(2-hydroxypropan-2-yl)oxazol-5-yl)(4-(pyrazolo[1,5-a]pyridin-2-yl)-6,7-dihydro-1H-imidazo[4,5-c]pyridin-5(4H)-yl)methanone], for which the AC50 is above 5000 nM.
